Laboratory results: PubChem BioAssay (NCI)
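48-hour exposure; five concentrations; linearly interpolated endpoints. The concentration for 50% growth inhibition is given as GI50. Definition used: TGI = concentration required for complete inhibition of growth.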

Assays:
Assay in all cases: NCI anticancer screen, dose series, 48 h
[1] = system: RXF 393 renal
[2] = system: HCT-116 colon
[3] = system: SF-268 CNS
[4] = system: HT29 colon
[5] = system: OVCAR-8 ovarian
[6] = system: SNB-19 CNS
[7] = system: NCI-H460 lung
[8] = system: HS 578T breast
[9] = system: RPMI-8226 leukemia
[10] = system: K-562 leukemia

Compound | GI50 [1] | TGI [1] | GI50 [2] | TGI [2] | GI50 [3] | TGI [3] | GI50 [4] | TGI [4] | GI50 [5] | TGI [5] | GI50 [6] | TGI [6] | GI50 [7] | TGI [7] | GI50 [8] | TGI [8] | GI50 [9] | TGI [9] | GI50 [10] | TGI [10]
C=CCN1C(=O)[C@]2(SC1=S)[C@H](c1cccc(Cl)c1)CN(C)[C@]21C(=O)NC2C=CC(Cl)=C[C@H]21 (stereo not given in full) | 2.14 µM | 5.8 µM | 2.88 µM | 13.9 µM | 6.77 µM | 24.6 µM | 1.67 µM | 3.85 µM | 4.22 µM | 17.3 µM | 4.83 µM | 16.8 µM | 3.62 µM | 13.6 µM | 3.6 µM | 21.2 µM | 1.64 µM | 4.97 µM | – | –
Cc1cc(OCc2nn(CN3CCN(C)CC3)c(=S)n2/N=C/c2ccc(F)cc2)ccc1Cl | 17.5 µM | 31.9 µM | 17.8 µM | 32.3 µM | 19.6 µM | 38 µM | – | – | 18 µM | 32.2 µM | 17.6 µM | 33.8 µM | 17 µM | 31.8 µM | 33.1 µM | 88.7 µM | 16.8 µM | 40.7 µM | 19.2 µM | 41.7 µM
CN(C)CCNC(=O)c1cccc2c1nc(-c1ccncc1)c1ccccc12 | – | 7.55 µM | – | 9.23 µM | – | 19.7 µM | – | 19.4 µM | – | 41.9 µM | – | 27.2 µM | – | 3.05 µM | – | – | – | – | – | > 100 µM
O=C(O)c1[nH]c2c([N+](=O)[O-])cc([N+](=O)[O-])cc2c1C(=O)O | – | > 100 µM | – | > 100 µM | – | > 100 µM | – | > 100 µM | – | > 100 µM | – | > 100 µM | – | > 100 µM | – | > 100 µM | – | – | – | > 100 µM
O=C1CCc2ccc(O)c(c2)Oc2ccc(cc2)[C@@H]2O[C@@H]2CO1 | – | – | – | > 100 µM | – | – | – | > 100 µM | – | > 100 µM | – | > 100 µM | – | – | – | – | – | > 100 µM | – | > 100 µM
CC(=O)[CH-]C(=O)c1ccccc1.CC(=O)[CH-]C(=O)c1ccccc1.CC(=O)[CH-]C(=O)c1ccccc1.[Br-].[Zr+4] | > 100 µM | > 100 µM | – | – | 56.7 µM | > 100 µM | 48.3 µM | > 100 µM | > 100 µM | > 100 µM | – | – | 78.3 µM | > 100 µM | – | – | 72.5 µM | > 100 µM | > 100 µM | > 100 µM
CCOC(=O)c1cc(C(=O)c2cc(OC)c(OC)c(OC)c2)n2ccc(-c3cc[n+](CC(=O)c4cc(OC)c(OC)c(OC)c4)cc3)cc12 | 1.66 µM | 3.48 µM | 1.72 µM | 3.5 µM | – | – | 1.83 µM | 3.68 µM | 2.33 µM | 5.47 µM | – | – | 2 µM | 3.78 µM | 1.74 µM | 4.29 µM | – | – | – | –
CCc1ccccc1NC(=O)C(=O)C(C#N)c1c(Cl)cccc1Cl (stereo not given) | – | – | – | > 100 µM | – | > 100 µM | – | > 100 µM | – | – | – | > 100 µM | – | – | – | – | – | > 100 µM | – | > 100 µM
CCCCNCCCCCNc1cc(OC)cc2cccnc12 | 12.3 µM | 27.9 µM | 13.6 µM | 26.6 µM | > 100 µM | > 100 µM | – | – | 17.8 µM | 37.6 µM | 13.8 µM | 31.5 µM | 89.4 µM | > 100 µM | 21.7 µM | 47.9 µM | 15.5 µM | 39.8 µM | 20.4 µM | 44.8 µM
CCOP(=O)(OCC)C(NC(c1ccccc1)c1ccccc1)c1ccc(C(C)C)cc1 (stereo not given) | – | – | 3.08 µM | 11.3 µM | 7.93 µM | 69.5 µM | 6.27 µM | 42.1 µM | 5.04 µM | 19.5 µM | 26.6 µM | > 100 µM | 5.91 µM | > 100 µM | – | – | 2.65 µM | 9.99 µM | 3.48 µM | 14.8 µM
C/C=C1/C(=Cc2[nH]c(C=c3[nH]/c(=C/C4=NC(=O)C(CC)=C4C)c(C)c3CCC(=O)O)c(CCC(=O)O)c2C)NC(=O)C1C (stereo not given) | – | > 50 µM | – | > 50 µM | – | > 50 µM | – | 49 µM | – | 5 µM | – | > 50 µM | – | 40.6 µM | – | – | – | – | – | > 50 µM
O=C(O)CCSC(=O)Nc1ccccc1 | – | > 100 µM | – | > 100 µM | – | > 100 µM | – | > 100 µM | – | > 100 µM | – | > 100 µM | – | > 100 µM | – | – | – | > 100 µM | – | > 100 µM
CC(=O)/C=C/c1ccc(N(CCO)Cc2ccc(C(C)(C)C)cc2)cc1 | 65.5 µM | 208 µM | 30 µM | 125 µM | 59 µM | 200 µM | 27.7 µM | 103 µM | 62.9 µM | 210 µM | 116 µM | 241 µM | 39.9 µM | 144 µM | 80 µM | 297 µM | 28.2 µM | 72.5 µM | – | –
FC(F)(F)c1nc(Br)[nH]c1C(F)(F)F | – | > 100 µM | – | > 100 µM | – | > 100 µM | – | > 100 µM | – | > 100 µM | – | > 100 µM | – | > 100 µM | – | – | – | > 100 µM | – | > 100 µM
Cc1ccc2c(c1)C(O)(c1ccccc1)CCS2 (stereo not given) | – | > 100 µM | – | 42.5 µM | – | > 100 µM | – | 66 µM | – | > 100 µM | – | > 100 µM | – | > 100 µM | – | > 100 µM | – | – | – | > 100 µM
O=C(NCc1ccccc1)C1C(=O)C(=O)N(Cc2ccccc2)C1=O (stereo not given) | – | > 100 µM | – | > 100 µM | – | > 100 µM | – | > 100 µM | – | > 100 µM | – | > 100 µM | – | > 100 µM | – | – | – | > 100 µM | – | > 100 µM
CC1(C)CC[C@]2(CO)CC[C@]3(C)C(=CC[C@@H]4[C@@]5(C)CCNCC(C)(C)[C@@H]5CC[C@]43C)[C@@H]2C1 | 1.95 µM | 4.83 µM | 3.13 µM | 12.4 µM | 8.98 µM | 25.4 µM | 2.69 µM | 9.4 µM | 4.77 µM | 24.8 µM | 12.8 µM | 26.8 µM | 2.08 µM | 4.82 µM | 4.88 µM | 22.1 µM | – | – | 2.6 µM | 16.5 µM
